{
  "source": "patent US20150072967A1",
  "about": "“TAUROURSODEOXYCHOLIC ACID ATTENTUATES OR ABOLISHES FORMATION AND DEPOSITION OF AMYLOID-B PEPTIDE” (Metselex, Inc., priority 2012, published 2015)",
  "key": {"APP/PS1 mice [1]": {"test_system": "APP/PS1 mice", "experiment": "Sandwich ELISA of Aβ1-40 and Aβ1-42 in brain extracts", "format": "in vivo, mouse", "details": "hippocampus and frontal cortex of APP/PS1 mice; p<0.01", "experimental": "(§1) Transgenic mice and TUDCA treatment. APP/PS1 double-transgenic mice express human APP containing the KM670/671NL Swedish double mutation and human PS 1 carrying the L166P mutation under the control of a neuron-specific murine Thy-1 minigene promoter. The two transgenes cosegregate in these mice. APP/PS1 mice were maintained on a C57BL/6J genetic background and genotyped by PCR analysis of genomic DNA from tail biopsies. All animals were kept in standard animal cages under conventional laboratory conditions (12 h light/dark cycle, 22° C.), with ad libitum access to food and water. The animals were randomized for therapy trials and coded, and the operators remained double blinded to which treatment they received, until the completion of data collection. Male APP/PS1 transgenic mice and wild-type littermates were randomly assigned into four groups: TUDCA-treated and untreated (control) APP/PS1 mice and TUDCA-treated and untreated (control) wild-type mice. […]\nSandwich ELISA. […] Total Aβ1-40 or Aβ1-42 content was measured by sandwich ELISA (Millipore) according to the manufacturer's instructions. Values were normalized to the respective total protein concentration and expressed as % of wild-type control."}, "[2]": {"test_system": "CTGF, A2M, APOE, SORLA expression", "experiment": "Real-time PCR of lipid-metabolism mediators in brain", "format": "in vivo, mouse", "experimental": "(§2) Transgenic mice and TUDCA treatment. APP/PS1 double-transgenic mice express human APP containing the KM670/671NL Swedish double mutation and human PS 1 carrying the L166P mutation under the control of a neuron-specific murine Thy-1 minigene promoter. The two transgenes cosegregate in these mice. APP/PS1 mice were maintained on a C57BL/6J genetic background and genotyped by PCR analysis of genomic DNA from tail biopsies. All animals were kept in standard animal cages under conventional laboratory conditions (12 h light/dark cycle, 22° C.), with ad libitum access to food and water. The animals were randomized for therapy trials and coded, and the operators remained double blinded to which treatment they received, until the completion of data collection. Male APP/PS1 transgenic mice and wild-type littermates were randomly assigned into four groups: TUDCA-treated and untreated (control) APP/PS1 mice and TUDCA-treated and untreated (control) wild-type mice. Animals were fed a diet of standard laboratory chow supplemented with either 0.4% (wt/wt) TUDCA (sodium salt; Prodotti Chimici e Alimentari S.p.A., Basaluzzo, Italy), or no bile acid, custom made by Harlan (Harlan Laboratories Models, S.L., Barcelona, Spain). Treatment was started when the mice were 2 months old and continued for 6 months. The dose and duration of TUDCA, whose pharmacokinetics has been extensively studied in rodents, were chosen based on pilot studies using APP/PS1 mice and other animal studies.\nReal-time PCR. Total RNA from dissected hippocampus and frontal cortex was isolated with TRIzol (Invitrogen), according to the manufacturer's instructions. Samples were homogenized in TRIzol using a motor-driven Bio-vortexer (No 1083; Biospec Products, Bartlesfield, Okla.) and disposable RNAse/DNAse free sterile pestles (Thermo Scientific). […] Real-time quantitative PCR analysis was performed in the 7300 Real-Time PCR System (Applied Biosystems, Foster City, Calif., USA), using SYBR Green PCR master mix (Fermentas International Inc., Glen Burnie, Md., USA). Triplicate reactions were run per sample. The expression levels relative to GAPDH were calculated using the ΔΔCt method. TUDCA-untreated wild-type mice were used as the calibrator. The n-fold change in expression was obtained using the formula: 2^−ΔΔCt."}, "APP/PS1 mice [3]": {"test_system": "APP/PS1 mice", "experiment": "MAP2 immunoreactivity (neuronal integrity)", "format": "in vivo, mouse", "experimental": "as §1\n(§3) Image analysis and semiquantification of immunofluorescence. Images were acquired with an Axioskop fluorescence microscope (Carl Zeiss GmbH, Hamburg, Germany). Semiquantitative analysis of mean fluorescence intensities (MFIs) of GFAP, Iba-I, and MAP2 were performed using NIH Image J software. […]"}, "APP/PS1 mice [4]": {"test_system": "APP/PS1 mice", "experiment": "Aβ immunohistochemistry (6E10), Aβ plaque number in brain", "format": "in vivo, mouse", "details": "TUDCA-treated APP/PS1 mice vs untreated transgenic mice", "experimental": "as §1\n(§4) Image analysis and semiquantification of immunofluorescence. Images were acquired with an Axioskop fluorescence microscope (Carl Zeiss GmbH, Hamburg, Germany). Semiquantitative analysis of mean fluorescence intensities (MFIs) of GFAP, Iba-I, and MAP2 were performed using NIH Image J software. […] An intensity threshold was set and kept constant for all images analyzed. […]"}, "APP/PS1 mice [5]": {"test_system": "APP/PS1 mice", "experiment": "Iba-I immunostaining (activated microglia)", "format": "in vivo, mouse", "experimental": "as §1, §3"}, "hepatocytes": {"test_system": "hepatocytes", "details": "DNA microarray; cited from earlier work"}, "APP/PS1 mice [6]": {"test_system": "APP/PS1 mice", "experiment": "GFAP immunofluorescence (activated astrocytes)", "format": "in vivo, mouse", "details": "hippocampus and frontal cortex; TUDCA-treated APP/PS1 mice; p<0.05", "experimental": "as §1, §4"}, "γ-secretase": {"test_system": "γ-secretase", "experiment": "γ-secretase activity / APP processing by immunoblot of APP-CTFs and total Aβ", "format": "in vivo, mouse", "details": "brain tissue", "experimental": "as §2\nγ-secretase activity. Assessment of γ-secretase activity was performed by detection of the ˜7 KDa carboxyl terminal fragment (CTF)-γ cleavage product of APP. Briefly, 60 μg of total protein extracts were resolved electrophoretically in 10-20% Tris-Tricine gels (BioRad), and CTF-γ (and CTF-β) identified using an anti-APP, C-terminal rabbit polyclonal antibody (Sigma-Aldrich; 1:2000). After stripping, membranes were incubated with the primary mouse monoclonal antibody reactive to Aβ (6E10; Signet; 1:1000) to detect total Aβ peptide. Immunoreactivities were visualized as described above."}, "[7]": {"details": "cited from earlier work"}, "APP/PS1 mice [8]": {"test_system": "APP/PS1 mice", "experiment": "Thioflavin T staining of amyloid plaque burden in brain sections", "format": "in vivo, mouse", "experimental": "Transgenic mice and TUDCA treatment. APP/PS1 double-transgenic mice express human APP containing the KM670/671NL Swedish double mutation and human PS 1 carrying the L166P mutation under the control of a neuron-specific murine Thy-1 minigene promoter. The two transgenes cosegregate in these mice. APP/PS1 mice were maintained on a C57BL/6J genetic background and genotyped by PCR analysis of genomic DNA from tail biopsies. All animals were kept in standard animal cages under conventional laboratory conditions (12 h light/dark cycle, 22° C.), with ad libitum access to food and water. […]\nImage analysis and semiquantification of immunofluorescence. Images were acquired with an Axioskop fluorescence microscope (Carl Zeiss GmbH, Hamburg, Germany). Semiquantitative analysis of mean fluorescence intensities (MFIs) of GFAP, Iba-I, and MAP2 were performed using NIH Image J software. […] An intensity threshold was set and kept constant for all images analyzed. MFI per square millimeter area was calculated by dividing the MFI units by the area of outlined regions and is presented as a bar graph. The total number of thioflavin- and Aβ-positive plaques in the hippocampus and frontal cortex was counted and presented as plaque number per square millimeter."}, "APP/PS1 mice [9]": {"test_system": "APP/PS1 mice", "experiment": "Recognition, spatial and contextual fear memory", "format": "in vivo, mouse", "details": "transgenic mice vs control transgenic mice", "experimental": "as §2, with “The dose and duration of TUDCA, whose pharmacokinetics has been extensively studied in rodents, were chosen based on pilot studies using APP/PS1 mice and other animal studies.” left out"}, "[10]": {"details": "APP/PS1 mice hippocampus, p<0.05"}, "[11]": {"details": "TUDCA-treated APP/PS1 mice vs control transgenic mice"}},
  "data": [
    {"smiles": "C[C@H](CCC(=O)NCCS(=O)(=O)O)[C@H]1CC[C@H]2[C@@H]3[C@@H](O)C[C@@H]4C[C@H](O)CC[C@]4(C)[C@H]3CC[C@]12C", "note": "[TUDCA, tauroursodeoxycholic acid]", "values": [
      {"measurement": "Aβ1-40 levels", "setting": "APP/PS1 mice [1]", "result": "significantly decreased"},
      {"measurement": "Aβ1-42 levels", "setting": "APP/PS1 mice [1]", "result": "significantly decreased"},
      {"measurement": "A2M expression (mRNA)", "setting": "[2]; APP/PS1 mice frontal cortex", "result": "trend for decreased"},
      {"measurement": "APOE expression (mRNA)", "setting": "[2]; APP/PS1 mice frontal cortex", "result": "trend for decreased"},
      {"measurement": "CTGF expression (mRNA)", "setting": "[2]; APP/PS1 mice frontal cortex, p<0.05", "result": "significantly decreased"},
      {"measurement": "SORLA expression (mRNA)", "setting": "[2]; APP/PS1 mice hippocampus", "result": "slightly increasing"},
      {"measurement": "A2M expression (mRNA)", "setting": "[2]; [10]", "result": "significantly decreased"},
      {"measurement": "APOE expression (mRNA)", "setting": "[2]; [10]", "result": "significantly decreased"},
      {"measurement": "CTGF expression (mRNA)", "setting": "[2]; [10]", "result": "significantly decreased"},
      {"measurement": "integrity of the neuronal fibers around amyloid plaques (MAP2/amyloid double staining)", "setting": "APP/PS1 mice [3]; brains of TUDCA-treated APP/PS1 mice", "result": "significant improvement"},
      {"measurement": "MAP2 immunoreactivity", "setting": "APP/PS1 mice [3]; hippocampus and frontal cortex of APP/PS1 mice, p<0.05", "result": "prevented the loss"},
      {"measurement": "decrease of Aβ plaque number", "setting": "APP/PS1 mice [4]; frontal cortex, p<0.05", "result": 40, "unit": "%"},
      {"measurement": "decrease of Aβ plaque number", "setting": "APP/PS1 mice [4]; hippocampus, p<0.01", "result": "~65", "unit": "%"},
      {"measurement": "Iba-I immunoreactivity", "setting": "APP/PS1 mice [5]; TUDCA-treated APP/PS1 mice relative to control APP/PS1 mice, p<0.05", "result": "significantly less"},
      {"measurement": "reactive microglia around amyloid plaques (Iba-I/thioflavin double-staining)", "setting": "APP/PS1 mice [5]; brains of TUDCA-treated APP/PS1 mice vs control APP/PS1 mice", "result": "fewer reactive microglia"},
      {"measurement": "downregulation of A2M expression", "setting": "hepatocytes", "result": "greater than 10 fold"},
      {"measurement": "downregulation of CTGF expression", "setting": "hepatocytes", "result": "greater than 10 fold"},
      {"measurement": "GFAP immunoreactivity", "setting": "APP/PS1 mice [6]", "result": "decreased"},
      {"measurement": "CTF-β levels", "setting": "γ-secretase; TUDCA-fed transgenic mice vs control transgenic mice", "result": "decreased"},
      {"measurement": "total Aβ levels", "setting": "γ-secretase; TUDCA-treated APP/PS1 mice vs control APP/PS1 mice", "result": "decreased"},
      {"measurement": "full-length APP levels", "setting": "γ-secretase; [11]", "result": "remained unchanged"},
      {"measurement": "production of CTF-γ", "setting": "γ-secretase; [11]", "result": "decrease"},
      {"measurement": "oral bioavailability", "setting": "[7]", "result": "orally bioavailable"},
      {"measurement": "amyloid deposits (thioflavin staining)", "setting": "APP/PS1 mice [8]; TUDCA-treated wild-type mice", "result": "absent"},
      {"measurement": "thioflavin plaque number", "setting": "APP/PS1 mice [8]; hippocampus and frontal cortex, APP/PS1 mice fed 0.4% (wt/wt) TUDCA for 6 months vs control transgenic mice, p<0.01", "result": "marked reduction"},
      {"measurement": "recognition, and spatial and contextual fear memory", "setting": "APP/PS1 mice [9]", "result": "improved"}
    ]}
  ]
}
